Assay results taken from PubChem BioAssay (NCI).
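In this assay, cells in 96-well plates receive the compound at five concentrations for 48 hours. Endpoints are linearly interpolated between the surrounding concentrations. GI50 marks 50% less growth. At the TGI there is no net growth.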

Columns and labels:
Assay in all cases: growth of human tumour cells (NCI), 48 h
786-0 renal = test system: 786-0 renal
A498 renal = test system: A498 renal
A549 NSCLC = test system: A549 NSCLC
ACHN renal = test system: ACHN renal
BT-549 breast = test system: BT-549 breast
CAKI-1 renal = test system: CAKI-1 renal
CCRF-CEM leukemia = test system: CCRF-CEM leukemia
COLO 205 colon = test system: COLO 205 colon
DU-145 prostate = test system: DU-145 prostate
EKVX NSCLC = test system: EKVX NSCLC
HCT-116 colon = test system: HCT-116 colon
HCT-15 colon = test system: HCT-15 colon
HL-60(TB) leukemia = test system: HL-60(TB) leukemia
HOP-62 NSCLC = test system: HOP-62 NSCLC
HOP-92 NSCLC = test system: HOP-92 NSCLC
HS 578T breast = test system: HS 578T breast
HT29 colon = test system: HT29 colon
K-562 leukemia = test system: K-562 leukemia
KM12 colon = test system: KM12 colon
LOX IMVI melanoma = test system: LOX IMVI melanoma
M14 melanoma = test system: M14 melanoma
MALME-3M melanoma = test system: MALME-3M melanoma
MCF7 breast = test system: MCF7 breast
MDA-MB-435 = test system: MDA-MB-435
NCI-H226 lung = test system: NCI-H226 lung
NCI-H23 lung = test system: NCI-H23 lung
NCI-H460 lung = test system: NCI-H460 lung
NCI/ADR-RES ovarian = test system: NCI/ADR-RES ovarian
OVCAR-3 ovarian = test system: OVCAR-3 ovarian
OVCAR-8 ovarian = test system: OVCAR-8 ovarian
PC-3 prostate = test system: PC-3 prostate
RPMI-8226 leukemia = test system: RPMI-8226 leukemia
RXF 393 renal = test system: RXF 393 renal
SF-268 CNS = test system: SF-268 CNS
SF-295 CNS = test system: SF-295 CNS
SF-539 CNS = test system: SF-539 CNS
SK-MEL-2 melanoma = test system: SK-MEL-2 melanoma
SK-MEL-28 melanoma = test system: SK-MEL-28 melanoma
SK-MEL-5 melanoma = test system: SK-MEL-5 melanoma
SK-OV-3 ovarian = test system: SK-OV-3 ovarian
SNB-19 CNS = test system: SNB-19 CNS
SNB-75 CNS = test system: SNB-75 CNS
SR leukemia = test system: SR leukemia
SW-620 colon = test system: SW-620 colon
T-47D breast = test system: T-47D breast
TK-10 renal = test system: TK-10 renal
U251 CNS = test system: U251 CNS
UACC-257 melanoma = test system: UACC-257 melanoma
UACC-62 melanoma = test system: UACC-62 melanoma
UO-31 renal = test system: UO-31 renal
HCC-2998 colon = test system: HCC-2998 colon
IGROV1 ovarian = test system: IGROV1 ovarian
MOLT-4 leukemia = test system: MOLT-4 leukemia
NCI-H522 lung = test system: NCI-H522 lung

Compound: CC[N+](CC)=c1cc2oc3cc(N(C)C)ccc3nc-2cc1C
- GI50 (786-0 renal): 5.12 µM
- TGI (786-0 renal): > 100 µM
- GI50 (A498 renal): 1540 nM
- TGI (A498 renal): 30.8 µM
- GI50 (A549 NSCLC): 1710 nM
- TGI (A549 NSCLC): 16 µM
- GI50 (ACHN renal): 10.8 µM
- TGI (ACHN renal): > 100 µM
- GI50 (BT-549 breast): 932 nM
- TGI (BT-549 breast): 13.6 µM
- GI50 (CAKI-1 renal): 3070 nM
- TGI (CAKI-1 renal): 19.6 µM
- GI50 (CCRF-CEM leukemia): 2300 nM
- TGI (CCRF-CEM leukemia): 65.4 µM
- GI50 (COLO 205 colon): 660 nM
- TGI (COLO 205 colon): 2270 nM
- GI50 (DU-145 prostate): 4.36 µM
- TGI (DU-145 prostate): 33.4 µM
- GI50 (EKVX NSCLC): 1530 nM
- TGI (EKVX NSCLC): 17.3 µM
- GI50 (HCT-116 colon): 563 nM
- TGI (HCT-116 colon): 4.85 µM
- GI50 (HCT-15 colon): 2750 nM
- TGI (HCT-15 colon): > 100 µM
- GI50 (HL-60(TB) leukemia): 313 nM
- TGI (HL-60(TB) leukemia): 2.83 µM
- GI50 (HOP-62 NSCLC): 1980 nM
- TGI (HOP-62 NSCLC): 37.1 µM
- GI50 (HOP-92 NSCLC): 1150 nM
- TGI (HOP-92 NSCLC): 8.19 µM
- GI50 (HS 578T breast): 10.5 µM
- TGI (HS 578T breast): 64.2 µM
- GI50 (HT29 colon): 3.47 µM
- TGI (HT29 colon): > 100 µM
- GI50 (K-562 leukemia): 1780 nM
- TGI (K-562 leukemia): > 100 µM
- GI50 (KM12 colon): 975 nM
- TGI (KM12 colon): 14.7 µM
- GI50 (LOX IMVI melanoma): 1710 nM
- TGI (LOX IMVI melanoma): 12.3 µM
- GI50 (M14 melanoma): 471 nM
- TGI (M14 melanoma): 2650 nM
- GI50 (MALME-3M melanoma): 1530 nM
- TGI (MALME-3M melanoma): 5.33 µM
- GI50 (MCF7 breast): 352 nM
- TGI (MCF7 breast): 2480 nM
- GI50 (MDA-MB-435): 2150 nM
- TGI (MDA-MB-435): 17.7 µM
- GI50 (NCI-H226 lung): 6.76 µM
- TGI (NCI-H226 lung): 47.2 µM
- GI50 (NCI-H23 lung): 482 nM
- TGI (NCI-H23 lung): 6.79 µM
- GI50 (NCI-H460 lung): 1860 nM
- TGI (NCI-H460 lung): 73.6 µM
- GI50 (NCI/ADR-RES ovarian): 4.23 µM
- TGI (NCI/ADR-RES ovarian): > 100 µM
- GI50 (OVCAR-3 ovarian): 296 nM
- TGI (OVCAR-3 ovarian): 1020 nM
- GI50 (OVCAR-8 ovarian): 2110 nM
- TGI (OVCAR-8 ovarian): 9.93 µM
- GI50 (PC-3 prostate): 454 nM
- TGI (PC-3 prostate): > 100 µM
- GI50 (RPMI-8226 leukemia): 628 nM
- TGI (RPMI-8226 leukemia): 10.1 µM
- GI50 (RXF 393 renal): 15.2 µM
- TGI (RXF 393 renal): 90.1 µM
- GI50 (SF-268 CNS): 1180 nM
- TGI (SF-268 CNS): 3.48 µM
- GI50 (SF-295 CNS): 1930 nM
- TGI (SF-295 CNS): 16.8 µM
- GI50 (SF-539 CNS): 390 nM
- TGI (SF-539 CNS): 13.1 µM
- GI50 (SK-MEL-2 melanoma): 519 nM
- TGI (SK-MEL-2 melanoma): 4.82 µM
- GI50 (SK-MEL-28 melanoma): 8.4 µM
- TGI (SK-MEL-28 melanoma): 42.1 µM
- GI50 (SK-MEL-5 melanoma): 1040 nM
- TGI (SK-MEL-5 melanoma): 5.69 µM
- GI50 (SK-OV-3 ovarian): 4.45 µM
- TGI (SK-OV-3 ovarian): 98.7 µM
- GI50 (SNB-19 CNS): 2900 nM
- TGI (SNB-19 CNS): > 100 µM
- GI50 (SNB-75 CNS): 2590 nM
- TGI (SNB-75 CNS): 11.1 µM
- GI50 (SR leukemia): 2740 nM
- TGI (SR leukemia): 75 µM
- GI50 (SW-620 colon): 791 nM
- TGI (SW-620 colon): 23 µM
- GI50 (T-47D breast): 563 nM
- TGI (T-47D breast): > 100 µM
- GI50 (TK-10 renal): 1940 nM
- TGI (TK-10 renal): 8.38 µM
- GI50 (U251 CNS): 538 nM
- TGI (U251 CNS): 6.06 µM
- GI50 (UACC-257 melanoma): 306 nM
- TGI (UACC-257 melanoma): 1560 nM
- GI50 (UACC-62 melanoma): 3240 nM
- TGI (UACC-62 melanoma): 31.1 µM
- GI50 (UO-31 renal): 3.76 µM
- TGI (UO-31 renal): 41.9 µM

Compound: COc1cc(/C=C/C(=O)c2ccc(Nc3nc(NCCO)nc(N4CCOCC4)n3)cc2)cc(OC)c1OC
- GI50 (A498 renal): 1320 nM
- TGI (A498 renal): 5.01 µM
- GI50 (A549 NSCLC): 2180 nM
- TGI (A549 NSCLC): > 100 µM
- GI50 (ACHN renal): 1.95 µM
- TGI (ACHN renal): 5.61 µM
- GI50 (BT-549 breast): 1350 nM
- TGI (BT-549 breast): 2.86 µM
- GI50 (CAKI-1 renal): 2090 nM
- TGI (CAKI-1 renal): 11 µM
- GI50 (CCRF-CEM leukemia): 935 nM
- TGI (CCRF-CEM leukemia): 3.54 µM
- GI50 (EKVX NSCLC): 2830 nM
- TGI (EKVX NSCLC): > 100 µM
- GI50 (HCC-2998 colon): 1800 nM
- TGI (HCC-2998 colon): 3.3 µM
- GI50 (HCT-116 colon): 1300 nM
- TGI (HCT-116 colon): 3 µM
- GI50 (HCT-15 colon): 1430 nM
- TGI (HCT-15 colon): 4.4 µM
- GI50 (HL-60(TB) leukemia): 1790 nM
- TGI (HL-60(TB) leukemia): 4.78 µM
- GI50 (HOP-62 NSCLC): 2720 nM
- TGI (HOP-62 NSCLC): 7.75 µM
- GI50 (HOP-92 NSCLC): 1610 nM
- TGI (HOP-92 NSCLC): 7.4 µM
- GI50 (HS 578T breast): 1.65 µM
- TGI (HS 578T breast): 5.46 µM
- GI50 (IGROV1 ovarian): 1900 nM
- TGI (IGROV1 ovarian): 4.59 µM
- GI50 (K-562 leukemia): 783 nM
- TGI (K-562 leukemia): 7.56 µM
- GI50 (MCF7 breast): 1170 nM
- TGI (MCF7 breast): 2770 nM
- GI50 (MOLT-4 leukemia): 1190 nM
- TGI (MOLT-4 leukemia): 4.37 µM
- GI50 (NCI-H226 lung): 2.15 µM
- TGI (NCI-H226 lung): 5.18 µM
- GI50 (NCI-H23 lung): 2030 nM
- TGI (NCI-H23 lung): 5.17 µM
- GI50 (NCI-H460 lung): 1580 nM
- TGI (NCI-H460 lung): 3.47 µM
- GI50 (NCI-H522 lung): 1590 nM
- TGI (NCI-H522 lung): 4.11 µM
- GI50 (OVCAR-3 ovarian): 1690 nM
- TGI (OVCAR-3 ovarian): 4260 nM
- GI50 (OVCAR-8 ovarian): 2200 nM
- TGI (OVCAR-8 ovarian): > 100 µM
- GI50 (PC-3 prostate): 2140 nM
- TGI (PC-3 prostate): 7.18 µM
- GI50 (RXF 393 renal): 1.46 µM
- TGI (RXF 393 renal): 3.23 µM
- GI50 (SF-268 CNS): 1880 nM
- TGI (SF-268 CNS): 5.54 µM
- GI50 (SF-295 CNS): 3030 nM
- TGI (SF-295 CNS): > 100 µM
- GI50 (SF-539 CNS): 1630 nM
- TGI (SF-539 CNS): 3.16 µM
- GI50 (SK-MEL-2 melanoma): 1710 nM
- TGI (SK-MEL-2 melanoma): 3.73 µM
- GI50 (SK-MEL-5 melanoma): 1760 nM
- TGI (SK-MEL-5 melanoma): 3.28 µM
- GI50 (SK-OV-3 ovarian): 3.05 µM
- TGI (SK-OV-3 ovarian): 27.5 µM
- GI50 (SR leukemia): 422 nM
- TGI (SR leukemia): 3.22 µM
- GI50 (T-47D breast): 1800 nM
- TGI (T-47D breast): 6.68 µM
- GI50 (U251 CNS): 1380 nM
- TGI (U251 CNS): 2.97 µM
- GI50 (UACC-62 melanoma): 1540 nM
- TGI (UACC-62 melanoma): 3.2 µM
